Data: paper PMC11939327, “Chaetocin, a Natural Inhibitor of Transketolase, Suppresses the Non-Oxidative Pentose Phosphate Pathway and Inhibits the Growth of Drug-Resistant Non-Small Cell Lung Cancer” (Antioxidants, 2025)

Target: T1, transketolase (TKT) (Homo sapiens, UniProt P29401)
T1 sequence (P29401 1-623): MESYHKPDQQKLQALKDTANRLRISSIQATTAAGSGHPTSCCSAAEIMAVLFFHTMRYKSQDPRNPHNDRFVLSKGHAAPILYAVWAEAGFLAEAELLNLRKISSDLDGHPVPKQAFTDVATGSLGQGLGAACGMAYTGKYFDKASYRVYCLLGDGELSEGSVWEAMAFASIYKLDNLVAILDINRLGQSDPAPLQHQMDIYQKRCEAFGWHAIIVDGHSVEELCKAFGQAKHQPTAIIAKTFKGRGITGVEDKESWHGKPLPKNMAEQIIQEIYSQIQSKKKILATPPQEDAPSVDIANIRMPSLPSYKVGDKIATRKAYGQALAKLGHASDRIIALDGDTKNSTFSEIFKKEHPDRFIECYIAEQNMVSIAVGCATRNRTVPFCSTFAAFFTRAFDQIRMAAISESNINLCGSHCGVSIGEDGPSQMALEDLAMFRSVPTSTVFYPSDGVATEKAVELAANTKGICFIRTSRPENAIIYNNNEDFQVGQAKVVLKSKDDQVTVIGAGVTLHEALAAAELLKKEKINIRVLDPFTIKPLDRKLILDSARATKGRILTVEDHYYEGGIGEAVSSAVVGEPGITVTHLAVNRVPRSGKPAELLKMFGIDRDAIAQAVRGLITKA
Assay: Bio-layer interferometry with biotinylated TKT on SA biosensors; supported by DARTS and CETSA in A549/DDP cells
Format: binding

For `CN1C(=O)[C@@]23C[C@]4([C@]56C[C@@]78SS[C@@](CO)(C(=O)N7[C@H]5Nc5ccccc56)N(C)C8=O)c5ccccc5N[C@@H]4N2C(=O)[C@]1(CO)SS3` [chaetocin], which Kd is on record?
The Kd was 63.2 µM.
